Data as given in DBAASP.
Values after ≈ are worked out from the molar mass of the structure shown.

Tests used:
Assay in all cases: ≥ marks a high value that may be exact or a test limit, other limits are often not marked, values filed in µg/mL are converted to µM
[1] = system: Bacillus subtilis
[2] = system: Candida albicans
[3] = system: Escherichia coli
[4] = system: Staphylococcus aureus
[5] = system: Bacillus cereus
[6] = system: Staphylococcus aureus ATCC 25923
[7] = system: Escherichia coli ATCC 25922
[8] = system: Acinetobacter baumannii ATCC 19606
[9] = system: Pseudomonas aeruginosa ATCC 27853

Row | SMILES | MIC [3] [µM] | MIC [4] [µM] | MIC [5] [µM] | other results
1 | CC[C@H](C)[C@H](NC(=O)[C@H](CCCN=C(N)N)NC(=O)[C@@H](NC(=O)[C@@H]1CCCN1C(=O)[C@H](CCCN=C(N)N)NC(=O)[C@@H](NC(=O)[C@@H]1CCCN1C(=O)[C@H](CC(C)C)NC(=O)[C@H](CC(C)C)NC(=O)CNC(=O)[C@H](Cc1cnc[nH]1)NC(=O)[C@@H]1CCCN1C(=O)CNC(=O)[C@H](Cc1ccccc1)NC(=O)[C@H](CC(=O)O)NC(=O)[C@H](Cc1c[nH]c2ccccc12)NC(=O)[C@H](C)NC(=O)[C@@H](NC(=O)[C@H](C)N)[C@@H](C)O)[C@@H](C)CC)[C@@H](C)CC)C(=O)N[C@@H](CCCN=C(N)N)C(=O)N1CCC[C@H]1C(=O)N[C@@H](CC(C)C)C(=O)N[C@@H](CS)C(=O)NCC(=O)N[C@@H](CCCCN)C(=O)N[C@@H](CC(=O)O)C(=O)N[C@@H](CCCCN)C(=O)N[C@@H](CO)C(=O)O [ATAWDFGPHGLLPIRPIRIRPLCGKDKS] | 3.01 (≈ 9.37 µg/mL) | 1.5 (≈ 4.68 µg/mL) |  | MIC [1]: 24.1 µM (≈ 75 µg/mL); MIC [2]: 6.02 µM (≈ 18.8 µg/mL)
2 | CC(C)C[C@H](NC(=O)[C@@H](N)Cc1ccccc1)C(=O)NCC(=O)NCC(=O)N[C@H](C(=O)N[C@@H](Cc1ccccc1)C(=O)N[C@@H](CCCCN)C(=O)NCC(=O)N[C@@H](C)C(=O)N[C@@H](CO)C(=O)N[C@@H](CCCCN)C(=O)N[C@H](C(=O)N[C@@H](Cc1ccccc1)C(=O)N1CCC[C@H]1C(=O)N[C@@H](C)C(=O)N[C@H](C(=O)N[C@@H](Cc1ccccc1)C(=O)NCC(=O)N[C@@H](CCCCN)C(=O)N[C@H](C(=O)O)C(C)C)C(C)C)C(C)C)C(C)C [FLGGVFKGASKVFPAVFGKV] | > 125 | > 125 | ≥ 125 | 
3 | CC(C)C[C@H](NC(=O)[C@@H](N)Cc1ccccc1)C(=O)NCC(=O)N[C@@H](CCCCN)C(=O)N[C@H](C(=O)N[C@@H](Cc1ccccc1)C(=O)N[C@@H](CCCCN)C(=O)NCC(=O)N[C@@H](C)C(=O)N[C@H](C(=O)N[C@@H](CCCCN)C(=O)N[C@H](C(=O)N[C@@H](Cc1ccccc1)C(=O)N1CCC[C@H]1C(=O)N[C@@H](C)C(=O)N[C@H](C(=O)N[C@@H](Cc1ccccc1)C(=O)NCC(=O)N[C@@H](CCCCN)C(=O)N[C@H](C(=O)O)C(C)C)C(C)C)C(C)C)C(C)C)C(C)C [FLGKVFKGAVKVFPAVFGKV] | 59.9 (≈ 128 µg/mL) | > 59.9 | ≥ 59.9 | 
4 | CC(C)C[C@H](NC(=O)[C@H](CCCCN)NC(=O)[C@H](Cc1ccccc1)NC(=O)[C@@H](NC(=O)[C@H](CCCCN)NC(=O)CNC(=O)[C@H](CC(C)C)NC(=O)[C@@H](N)Cc1ccccc1)C(C)C)C(=O)N[C@@H](C)C(=O)N[C@@H](CO)C(=O)N[C@@H](CCCCN)C(=O)N[C@H](C(=O)N[C@@H](Cc1ccccc1)C(=O)N1CCC[C@H]1C(=O)N[C@@H](C)C(=O)N[C@H](C(=O)N[C@@H](Cc1ccccc1)C(=O)N[C@@H](CCCCN)C(=O)N[C@@H](CCCCN)C(=O)N[C@H](C(=O)O)C(C)C)C(C)C)C(C)C [FLGKVFKLASKVFPAVFKKV] | 7.1 (≈ 16 µg/mL) | 56.8 (≈ 128 µg/mL) | ≥ 56.8 | 
5 | CC(C)C[C@H](NC(=O)[C@@H](N)Cc1ccccc1)C(=O)NCC(=O)N[C@H](C(=O)N[C@H](C(=O)N[C@@H](Cc1ccccc1)C(=O)N[C@@H](CCCCN)C(=O)N[C@@H](CCCCN)C(=O)N[C@@H](C)C(=O)N[C@@H](CO)C(=O)N[C@@H](CCCCN)C(=O)N[C@H](C(=O)N[C@@H](Cc1ccccc1)C(=O)N1CCC[C@H]1C(=O)N[C@@H](C)C(=O)N[C@H](C(=O)N[C@@H](Cc1ccccc1)C(=O)NCC(=O)N[C@@H](CCCCN)C(=O)N[C@H](C(=O)O)C(C)C)C(C)C)C(C)C)C(C)C)C(C)C [FLGVVFKKASKVFPAVFGKV] | 118 (≈ 256 µg/mL) | > 118 | ≥ 118 | 
6 | CC(C)C[C@H](NC(=O)[C@H](CCCCN)NC(=O)[C@H](Cc1ccccc1)NC(=O)[C@@H](NC(=O)[C@@H](NC(=O)CNC(=O)[C@H](CC(C)C)NC(=O)[C@@H](N)Cc1ccccc1)C(C)C)C(C)C)C(=O)N[C@@H](C)C(=O)N[C@@H](CO)C(=O)N[C@@H](CCCCN)C(=O)N[C@H](C(=O)N[C@H](C(=O)N1CCC[C@H]1C(=O)N[C@@H](C)C(=O)N[C@H](C(=O)N[C@@H](Cc1ccccc1)C(=O)NCC(=O)N[C@@H](CCCCN)C(=O)N[C@H](C(=O)O)C(C)C)C(C)C)C(C)C)C(C)C [FLGVVFKLASKVVPAVFGKV] | 122 (≈ 256 µg/mL) | 7.6 (≈ 16 µg/mL) | 30.4 (≈ 64 µg/mL) | 
7 | CC(C)C[C@H](NC(=O)[C@H](CC(C)C)NC(=O)[C@H](CCCCN)NC(=O)[C@H](CCCCN)NC(=O)[C@H](CC(C)C)NC(=O)[C@H](CC(=O)O)NC(=O)[C@H](CCCCN)NC(=O)[C@H](CC(C)C)NC(=O)[C@@H](N)Cc1ccccc1)C(N)=O [FLKDLKKLL] |  |  |  | MIC [6]: > 115 µM; MIC [7]: > 115 µM; MIC [8]: > 115 µM; MIC [9]: 14.3 µM (≈ 16 µg/mL)
8 | CC(C)C[C@H](NC(=O)CN)C(=O)N[C@@H](Cc1ccccc1)C(=O)NCC(=O)N[C@@H](CCCCN)C(=O)N[C@@H](CO)C(=O)N[C@@H](CO)C(=O)N[C@H](C(=O)N[C@@H](Cc1c[nH]c2ccccc12)C(=O)NCC(=O)N[C@@H](CCCN=C(N)N)C(=O)N[C@@H](CCCCN)C(=O)N[C@@H](Cc1ccc(O)cc1)C(=O)N[C@@H](Cc1ccc(O)cc1)C(=O)N[C@H](C(=O)N[C@@H](CC(=O)O)C(=O)N[C@@H](CC(C)C)C(=O)N[C@@H](C)C(=O)NCC(=O)N[C@@H](CS)C(=O)N[C@@H](C)C(=O)N[C@@H](CCCCN)C(=O)N[C@@H](C)C(=O)O)C(C)C)C(C)C [GLFGKSSVWGRKYYVDLAGCAKA] | 5.09 (≈ 12.6 µg/mL) | 2.54 (≈ 6.3 µg/mL) |  | MIC [1]: 2.54 µM (≈ 6.3 µg/mL); MIC [2]: 1.27 µM (≈ 3.15 µg/mL)
9 | CC[C@H](C)[C@H](N)C(=O)N[C@@H](C)C(=O)N[C@@H](CO)C(=O)N[C@@H](C)C(=O)N[C@H](C(=O)N1CCC[C@H]1C(=O)N[C@H](C(=O)N[C@@H](CS)C(=O)N[C@H](C(=O)N[C@@H](CCCCN)C(=O)NCC(=O)N[C@@H](CCCCN)C(=O)N[C@H](C(=O)N[C@@H](CO)C(=O)N[C@@H](CCCCN)C(=O)N[C@@H](CO)C(=O)N[C@@H](Cc1ccc(O)cc1)C(=O)N[C@H](C(=O)N[C@@H](CO)C(=O)N[C@H](C(=O)O)C(C)C)[C@@H](C)CC)[C@@H](C)CC)C(C)C)C(C)C)C(C)C [IASAVPVCVKGKISKSYISV] | > 125 |  | ≥ 125 | 
10 | CC(C)C[C@H](NC(=O)[C@H](CO)NC(=O)[C@@H]1CCCN1)C(=O)N[C@@H](CC(C)C)C(=O)N[C@@H](Cc1ccc(O)cc1)C(=O)N[C@@H](CCCCN)C(=O)N[C@@H](C)C(=O)N[C@@H](CCCCN)C(=O)N[C@@H](C)C(=O)N[C@H](C(=O)N[C@@H](Cc1ccccc1)C(=O)N[C@@H](CS)C(=O)N[C@@H](CCCCN)C(=O)N1CCC[C@H]1C(=O)N[C@@H](CO)C(=O)N[C@@H](C)C(=O)N[C@H](C(=O)N[C@@H](C)C(=O)N[C@H](C(=O)N[C@@H](Cc1ccccc1)C(=O)O)C(C)C)C(C)C)C(C)C [PSLLYKAKAVFCKPSAVAVF] | > 59.8 |  | ≥ 59.8 | 
11 | CC(C)C[C@H](NC(=O)[C@H](CCC(=O)O)NC(=O)[C@H](Cc1ccccc1)NC(=O)[C@H](CCC(=O)O)NC(=O)[C@H](C)NC(=O)[C@H](CCC(=O)O)NC(=O)[C@H](Cc1ccccc1)NC(=O)[C@H](CC(=O)O)NC(=O)[C@@H](NC(=O)[C@H](CC(=O)O)NC(=O)[C@H](CO)NC(=O)[C@H](CCCCN)NC(=O)[C@H](CCCN=C(N)N)NC(=O)[C@H](CCCCN)NC(=O)[C@@H](N)CCCN=C(N)N)C(C)C)C(=O)N[C@@H](Cc1ccccc1)C(=O)N[C@@H](CCC(=O)O)C(=O)N[C@@H](CC(=O)O)C(=O)N[C@@H](CC(=O)O)C(=O)N[C@@H](CC(=O)O)C(=O)O [RKRKSDVDFEAEFELFEDDD] | > 103 |  | ≥ 103 | 
12 | CC[C@H](C)[C@H](NC(=O)[C@H](CCCCN)NC(=O)[C@H](CS)NC(=O)[C@H](C)NC(=O)[C@@H](NC(=O)[C@H](Cc1ccccc1)NC(=O)CNC(=O)[C@H](CC(C)C)NC(=O)CNC(=O)[C@@H](NC(=O)[C@H](CCCCN)NC(=O)CNC(=O)[C@H](CC(C)C)NC(=O)[C@H](CC(N)=O)NC(=O)[C@H](CCCCN)NC(=O)[C@H](CC(C)C)NC(=O)[C@@H](NC(=O)[C@H](CO)NC(=O)[C@H](CC(C)C)NC(=O)[C@H](CCSC)NC(=O)[C@@H](N)CO)C(C)C)C(C)C)C(C)C)C(=O)N[C@@H](CC(N)=O)C(=O)N[C@@H](CCCCN)C(=O)N[C@@H](CCCCN)C(=O)N[C@@H](CS)C(=O)O [SMLSVLKNLGKVGLGFVACKINKKC] | 10 (≈ 26.5 µg/mL) | 40 (≈ 106 µg/mL) |  | MIC [2]: 40 µM (≈ 106 µg/mL)
13 | CC[C@H](C)[C@H](NC(=O)[C@H](CCCCN)NC(=O)[C@H](CS)NC(=O)[C@H](CCCCN)NC(=O)[C@@H](NC(=O)[C@H](Cc1ccccc1)NC(=O)CNC(=O)[C@H](CC(C)C)NC(=O)CNC(=O)[C@@H](NC(=O)[C@H](CCCCN)NC(=O)CNC(=O)[C@H](CC(C)C)NC(=O)[C@H](CC(N)=O)NC(=O)[C@H](CCCCN)NC(=O)[C@H](CC(C)C)NC(=O)[C@@H](NC(=O)[C@H](CO)NC(=O)[C@H](CC(C)C)NC(=O)[C@H](CCSC)NC(=O)[C@@H](N)CO)C(C)C)C(C)C)C(C)C)C(=O)N[C@@H](CC(N)=O)C(=O)N[C@@H](CCCCN)C(=O)N[C@@H](CCC(N)=O)C(=O)N[C@@H](CS)C(=O)O [SMLSVLKNLGKVGLGFVKCKINKQC] | 10 (≈ 27.1 µg/mL) | 20 (≈ 54.2 µg/mL) |  | MIC [2]: 20 µM (≈ 54.2 µg/mL)
14 | CC[C@H](C)[C@H](NC(=O)[C@H](C)NC(=O)[C@H](CS)NC(=O)[C@H](Cc1ccc(O)cc1)NC(=O)[C@@H](NC(=O)[C@H](CO)NC(=O)[C@@H]1CCCN1C(=O)[C@@H](NC(=O)[C@@H](NC(=O)[C@H](CCCCN)NC(=O)[C@H](CO)NC(=O)[C@H](C)NC(=O)[C@@H](NC(=O)[C@H](CCCCN)NC(=O)CNC(=O)[C@@H](NC(=O)[C@@H](NC(=O)[C@@H](N)CO)C(C)C)[C@@H](C)CC)[C@@H](C)CC)C(C)C)C(C)C)C(C)C)C(=O)N[C@@H](CO)C(=O)N[C@@H](CCCCN)C(=O)O [SVIGKIASKVVPSVYCAISK] | > 125 |  | ≥ 125 | 
